Measurements as given in paper PMC7385489, “β-hydroxybutyrate and hydroxycarboxylic acid receptor 2 agonists activate the AKT, ERK and AMPK pathways, which are involved in bovine neutrophil chemotaxis” (Scientific Reports, 2020).

Target: hydroxycarboxylic acid receptor 2 (HCA2) (Bos taurus, UniProt G3N168)
Experiment: Fura-2 calcium mobilization in native bovine neutrophils expressing HCA2
Format: cell-based

hydroxycarboxylic acid receptor 2 (HCA2), sequence (G3N168 1-379): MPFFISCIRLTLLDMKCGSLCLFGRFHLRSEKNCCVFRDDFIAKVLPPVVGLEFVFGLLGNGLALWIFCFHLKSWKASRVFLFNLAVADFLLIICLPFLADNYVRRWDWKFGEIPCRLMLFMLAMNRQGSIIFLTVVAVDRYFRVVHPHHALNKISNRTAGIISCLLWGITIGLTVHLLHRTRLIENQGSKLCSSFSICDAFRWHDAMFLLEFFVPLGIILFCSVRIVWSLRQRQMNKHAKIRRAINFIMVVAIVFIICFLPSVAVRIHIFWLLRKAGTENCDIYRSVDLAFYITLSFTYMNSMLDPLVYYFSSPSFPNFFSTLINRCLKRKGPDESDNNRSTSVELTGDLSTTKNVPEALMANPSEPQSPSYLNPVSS

EC50	SMILES
2650 µM	CC(O)CC(=O)O (stereo not drawn) [BHB, β-hydroxybutyrate]
0.0338 µM	O=C(O)c1n[nH]c2c1C[C@H]1C[C@@H]21 [MK-1903, (1aR,5aR)1a,3,5,5a-Tetrahydro-1H-2,3-diaza-cyclopropa[a]pentalene-4-carboxylic acid]
